Common to all, as to assay type: protein-complex assay
For assay [1], the target named is T1, Ecdysone receptor (Spodoptera frugiperda, UniProt Q8MWR1+Q8MWR2).
T1 sequence (Q8MWR2 whole entry): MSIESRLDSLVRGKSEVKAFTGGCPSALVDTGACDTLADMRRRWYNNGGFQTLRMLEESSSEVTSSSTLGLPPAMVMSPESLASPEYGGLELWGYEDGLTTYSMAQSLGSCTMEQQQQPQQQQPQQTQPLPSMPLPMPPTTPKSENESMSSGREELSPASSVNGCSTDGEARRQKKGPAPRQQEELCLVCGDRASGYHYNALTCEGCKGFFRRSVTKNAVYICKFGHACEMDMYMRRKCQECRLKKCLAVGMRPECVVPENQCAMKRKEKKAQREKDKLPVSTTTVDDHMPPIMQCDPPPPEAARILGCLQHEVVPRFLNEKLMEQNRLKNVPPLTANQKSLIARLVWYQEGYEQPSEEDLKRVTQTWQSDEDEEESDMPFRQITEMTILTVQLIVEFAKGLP
T1 sequence (Q8MWR1 whole entry): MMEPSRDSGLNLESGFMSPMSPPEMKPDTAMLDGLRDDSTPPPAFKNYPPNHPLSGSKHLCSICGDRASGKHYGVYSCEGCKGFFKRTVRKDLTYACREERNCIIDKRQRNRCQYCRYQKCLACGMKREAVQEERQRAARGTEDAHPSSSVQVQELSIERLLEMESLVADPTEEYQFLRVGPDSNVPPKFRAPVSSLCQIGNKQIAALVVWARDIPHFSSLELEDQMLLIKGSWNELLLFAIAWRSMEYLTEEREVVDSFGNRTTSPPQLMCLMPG
As to the kind of experiment: Binding affinity to Spodoptera frugiperda (fall armyworm) EcR.

The target in assay [2] is T2, Ecdysone receptor (Nezara viridula, UniProt E5L6Y0+E5L6Y1).
T2 sequence (E5L6Y1 whole entry): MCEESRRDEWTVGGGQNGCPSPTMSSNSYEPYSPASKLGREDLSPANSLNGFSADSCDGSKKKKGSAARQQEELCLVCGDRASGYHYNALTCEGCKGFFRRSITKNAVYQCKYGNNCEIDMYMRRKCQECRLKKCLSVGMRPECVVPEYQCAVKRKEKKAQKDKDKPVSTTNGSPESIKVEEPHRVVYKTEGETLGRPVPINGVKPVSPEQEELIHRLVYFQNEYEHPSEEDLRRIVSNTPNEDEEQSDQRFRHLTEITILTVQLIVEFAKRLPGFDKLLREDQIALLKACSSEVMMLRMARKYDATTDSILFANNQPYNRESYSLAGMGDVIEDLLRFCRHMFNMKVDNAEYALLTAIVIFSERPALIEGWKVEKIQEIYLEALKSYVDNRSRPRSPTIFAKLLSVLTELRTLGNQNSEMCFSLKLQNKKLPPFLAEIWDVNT
T2 sequence (E5L6Y0 whole entry): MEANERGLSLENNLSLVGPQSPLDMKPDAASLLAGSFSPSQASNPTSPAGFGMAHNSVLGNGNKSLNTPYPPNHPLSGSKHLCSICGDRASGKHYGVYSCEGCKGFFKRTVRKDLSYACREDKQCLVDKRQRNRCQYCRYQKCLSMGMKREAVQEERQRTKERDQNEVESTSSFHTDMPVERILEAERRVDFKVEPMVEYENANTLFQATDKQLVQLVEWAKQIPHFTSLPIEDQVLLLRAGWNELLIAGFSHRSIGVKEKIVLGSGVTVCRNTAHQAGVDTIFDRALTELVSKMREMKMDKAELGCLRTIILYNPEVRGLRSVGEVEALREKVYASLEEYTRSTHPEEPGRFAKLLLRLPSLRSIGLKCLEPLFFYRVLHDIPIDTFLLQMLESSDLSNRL
As to the kind of experiment: Binding affinity to Nezara viridula EcR11.

The target in assay [3] is T3, Ecdysone receptor (Choristoneura fumiferana, UniProt O76202+O77240).
T3 sequence (O77240 whole entry): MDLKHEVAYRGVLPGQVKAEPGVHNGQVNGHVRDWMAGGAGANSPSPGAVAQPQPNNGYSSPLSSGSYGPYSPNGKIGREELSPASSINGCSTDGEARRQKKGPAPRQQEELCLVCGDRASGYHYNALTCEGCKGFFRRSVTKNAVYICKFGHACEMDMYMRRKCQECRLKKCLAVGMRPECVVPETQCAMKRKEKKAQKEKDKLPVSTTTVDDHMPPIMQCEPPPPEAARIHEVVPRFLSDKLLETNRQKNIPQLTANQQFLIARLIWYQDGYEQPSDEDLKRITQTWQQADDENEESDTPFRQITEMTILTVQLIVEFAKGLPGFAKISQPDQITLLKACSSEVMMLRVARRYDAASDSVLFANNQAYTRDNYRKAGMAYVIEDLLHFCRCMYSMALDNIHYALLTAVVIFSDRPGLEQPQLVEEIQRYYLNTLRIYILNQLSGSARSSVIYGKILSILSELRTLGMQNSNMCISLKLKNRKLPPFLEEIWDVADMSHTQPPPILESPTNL
T3 sequence (O76202 whole entry): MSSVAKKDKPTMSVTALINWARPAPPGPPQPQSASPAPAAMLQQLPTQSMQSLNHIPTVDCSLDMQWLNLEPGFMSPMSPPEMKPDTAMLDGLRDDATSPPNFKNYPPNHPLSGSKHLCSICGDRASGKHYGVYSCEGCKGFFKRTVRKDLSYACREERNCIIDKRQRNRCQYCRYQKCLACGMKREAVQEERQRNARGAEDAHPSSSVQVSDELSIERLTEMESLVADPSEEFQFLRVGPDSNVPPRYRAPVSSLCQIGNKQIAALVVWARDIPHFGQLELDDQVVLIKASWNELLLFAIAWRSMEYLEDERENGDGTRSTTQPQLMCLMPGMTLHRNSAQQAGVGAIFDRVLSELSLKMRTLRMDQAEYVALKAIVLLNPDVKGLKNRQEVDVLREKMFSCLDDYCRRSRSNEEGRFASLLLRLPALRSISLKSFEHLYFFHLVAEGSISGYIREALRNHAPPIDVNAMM
As to the kind of experiment: Binding affinity to Choristoneura fumiferana EcR.

As usually defined, the IC50 is the midpoint of a concentration-inhibition curve. For `CC(C)(O)CC[C@@H](O)[C@](C)(O)[C@H]1CC[C@@]2(O)C3=CC(=O)[C@@H]4C[C@@H](O)[C@@H](O)C[C@]4(C)[C@H]3CC[C@]12C` [20-HYDROXYECDYSONE], the IC50 on Ecdysone receptor [1] is 166 nM.
Usually Ki stands for a dissociation constant, usually derived from enzyme kinetics or from competition with a known ligand. A high value points to lower affinity. As to `CCc1ccc(C(=O)NN(C(=O)c2cc(C)cc(C)c2)C(C)(C)C)cc1` [TEBUFENOZIDE], the figures for the Ki at Ecdysone receptor [2] and on Ecdysone receptor [3] were 25100 nM and 0.501 nM, respectively.

The values are drawn from ChEMBL document CHEMBL3045439, “Isoforms of the heteropteran Nezara viridula ecdysone receptor: protein characterisation, RH5992 insecticide binding and homology modelling” (Pest Manag Sci, 2011).
